Measurements from patent US10167262B2, “Herbicidal substituted 3-arylpyrazoles” (FMC CORPORATION, priority 2014, dated 2019).

Assays:
Format in all cases: in vivo
[1] = tested on: Italian ryegrass (Lolium multiflorum); experiment: Test E pre-/postemergence greenhouse test, plant response rating 0-100; details: scale 0 to 100; for Ryegrass, Italian plant response rating: Preemergence
Summary of the method: (§1)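 Greenhouse pot assay, two application timings. Pre- to silt loam at planting; post- to 1–4-leaf plants. Visual 0–100 score at 14–21 d.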

[2] = tested on: wild poinsettia (Euphorbia heterophylla); experiment: as above; details: for Poinsettia, Wild plant response rating: Preemergence; for Poinsettia, Wild plant response rating / Plant response rating, Poinsettia, Wild: scale 0 to 100; for Plant response rating, Poinsettia, Wild: Postemergence
Summary of the method: as §1

[3] = tested on: goosegrass (Eleusine indica); experiment: Test C postemergence greenhouse test, plant response rating 0-100
Summary of the method: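 Postemergence spray of formulated test chemicals on plants 2 to 18 cm tall (1- to 4-leaf stage) grown in peat/vermiculite medium. Greenhouse hold 13 to 15 days, then visual comparison with untreated controls on a 0-100 scale (0 no effect, 100 complete control); dash means no test result.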

[4] = tested on: waterhemp_RES2, (ALS & HPPD resistant common waterhemp, Amaranthus rudis); experiment: Test E postemergence greenhouse test, plant response rating 0-100; details: scale 0 to 100
Description: At the same time, plants from these crop and weed species and also waterhemp_RES1, (ALS & Triazine resistant common waterhemp, Amaranthus rudis), and waterhemp_RES2, (ALS & HPPD resistant common waterhemp, Amaranthus rudis) were planted in pots containing Redi-Earth® planting medium (Scotts Company, 14111 Scottslawn Road, Marysville, Ohio 43041) comprising spaghnum peat moss, vermiculite, wetting agent and starter nutrients were treated with postemergence applications of test chemicals formulated in the same manner. Plants ranged in height from 2 to 18 cm for postemergence treatments (1- to 4-leaf stage).
Treated plants and controls were maintained in a greenhouse for 14 to 21 days, after which time all species were compared to controls and visually evaluated. Plant response ratings, summarized in Table E, are based on a scale of 0 to 100 where 0 is no effect and 100 is complete control. A dash (-) response means no test result.

[5] = Euphorbia heterophylla, post-emergence, read-out: Plant response rating, Poinsettia, Wild

CCn1cc(C(=O)c2ccccc2)c(-c2cc(Cl)cc(Cl)c2)n1 [Compound 31, [3-(3,5-dichlorophenyl)-1-ethyl-1H-pyrazol-4-yl]phenylmethanone]
0: Ryegrass, Italian plant response rating ([1]; 62 g ai/ha) | Ryegrass, Italian plant response rating ([1]; 125 g ai/ha) | Ryegrass, Italian plant response rating ([1]; 250 g ai/ha) | Ryegrass, Italian plant response rating ([1]; 500 g ai/ha) | Poinsettia, Wild plant response rating ([2]; 62 g ai/ha) | Poinsettia, Wild plant response rating ([2]; 125 g ai/ha) | Poinsettia, Wild plant response rating ([2]; 250 g ai/ha) | Poinsettia, Wild plant response rating ([2]; 500 g ai/ha) | Plant response rating, Goosegrass ([3]; 16 g ai/ha) | Plant response rating (0 to 100), Goosegrass ([3]; 31 g ai/ha) | Plant response rating (0 to 100), Goosegrass ([3]; 62 g ai/ha) | Plant response rating (0 to 100), Goosegrass ([3]; 125 g ai/ha)

CCn1cc(C(=NN2CCCC2)c2ccccc2)c(-c2cc(Cl)cc(Cl)c2)n1 [Compound 37]
0: Plant response rating (0 to 100), Goosegrass ([3]; 31 g ai/ha) | Plant response rating (0 to 100), Goosegrass ([3]; 62 g ai/ha) | Plant response rating (0 to 100), Goosegrass ([3]; 125 g ai/ha) | Plant response rating, Goosegrass ([3]; 250 g ai/ha, scale 0 to 100)

ON=C(c1ccccc1)c1c[nH]nc1-c1cc(Cl)cc(Cl)c1 [Compound 50]
30: Plant response rating, Poinsettia, Wild ([2]; 500 g ai/ha)
75: Plant response rating, Waterhemp_RES2 ([4]; 31 g ai/ha)
20: Plant response rating, Poinsettia, Wild ([2]; 250 g ai/ha)
100: Plant response rating, Waterhemp_RES2 ([4]; 125 g ai/ha) | Plant response rating, Waterhemp_RES2 ([4]; 250 g ai/ha) | Plant response rating, Waterhemp_RES2 ([4]; 500 g ai/ha)
0: Plant response rating, Ryegrass, Italian ([1]; Postemergence, 31 g ai/ha) | Plant response rating, Ryegrass, Italian ([1]; Postemergence, 62 g ai/ha) | Plant response rating, Ryegrass, Italian ([1]; Postemergence, 125 g ai/ha) | Plant response rating, Ryegrass, Italian ([1]; Postemergence, 250 g ai/ha) | Plant response rating, Ryegrass, Italian ([1]; Postemergence, 500 g ai/ha) | Plant response rating, Poinsettia, Wild ([2]; 31 g ai/ha) | Plant response rating, Poinsettia, Wild ([2]; 62 g ai/ha) | Plant response rating, Poinsettia, Wild ([2]; 125 g ai/ha) | Plant response rating (0 to 100), Goosegrass ([3]; 31 g ai/ha) | Plant response rating (0 to 100), Goosegrass ([3]; 62 g ai/ha) | Plant response rating (0 to 100), Goosegrass ([3]; 125 g ai/ha) | Plant response rating, Goosegrass ([3]; 250 g ai/ha, scale 0 to 100)

C=CCn1cc(C(=O)c2ccccc2)c(-c2cc(Cl)cc(Cl)c2)n1 [Compound 60]
20: Plant response rating, Waterhemp_RES2 ([4]; 62 g ai/ha) | Plant response rating, Waterhemp_RES2 ([4]; 125 g ai/ha)
25: Plant response rating, Waterhemp_RES2 ([4]; 250 g ai/ha)
0: Plant response rating, Ryegrass, Italian ([1]; Postemergence, 31 g ai/ha) | Plant response rating, Ryegrass, Italian ([1]; Postemergence, 62 g ai/ha) | Plant response rating, Ryegrass, Italian ([1]; Postemergence, 125 g ai/ha) | Plant response rating, Ryegrass, Italian ([1]; Postemergence, 250 g ai/ha) | Plant response rating, Poinsettia, Wild ([2]; 31 g ai/ha) | Plant response rating, Poinsettia, Wild ([2]; 62 g ai/ha) | Plant response rating, Poinsettia, Wild ([2]; 125 g ai/ha) | Plant response rating, Poinsettia, Wild ([2]; 250 g ai/ha) | Plant response rating (0 to 100), Goosegrass ([3]; 31 g ai/ha) | Plant response rating (0 to 100), Goosegrass ([3]; 62 g ai/ha) | Plant response rating (0 to 100), Goosegrass ([3]; 125 g ai/ha) | Plant response rating, Goosegrass ([3]; 250 g ai/ha, scale 0 to 100)

CCCn1cc(C(=O)c2ccccc2)c(-c2cc(Cl)cc(Cl)c2)n1 [Compound 61, [3-(3,5-dichlorophenyl)-1-propyl-1H-pyrazol-4-yl]phenylmethanone]
95: Plant response rating, Waterhemp_RES2 ([4]; 500 g ai/ha)
10%: pest or weed control at 250 g/ha [2, 5]
0%: pest or weed control at 31 g/ha ([1]; Lolium multiflorum, post-emergence, Postemergence, 31 g ai/ha) | pest or weed control at 62 g/ha ([1]; Lolium multiflorum, post-emergence, Postemergence, 62 g ai/ha) | pest or weed control at 125 g/ha ([1]; Lolium multiflorum, post-emergence, Postemergence, 125 g ai/ha) | pest or weed control at 250 g/ha ([1]; Lolium multiflorum, post-emergence, Postemergence, 250 g ai/ha) | pest or weed control at 500 g/ha ([1]; Lolium multiflorum, post-emergence, Postemergence, 500 g ai/ha) | pest or weed control at 31 g/ha [2, 5] | pest or weed control at 62 g/ha [2, 5] | pest or weed control at 125 g/ha [2, 5]
5: Plant response rating, Goosegrass ([3]; 250 g ai/ha, scale 0 to 100)
0: Plant response rating (0 to 100), Goosegrass ([3]; 31 g ai/ha) | Plant response rating (0 to 100), Goosegrass ([3]; 62 g ai/ha) | Plant response rating (0 to 100), Goosegrass ([3]; 125 g ai/ha)
30%: pest or weed control at 500 g/ha [2, 5]
20: Plant response rating, Waterhemp_RES2 ([4]; 31 g ai/ha)
40: Plant response rating, Waterhemp_RES2 ([4]; 125 g ai/ha)
